Laboratory results as given in patent US8957106B2, “Iminosugar treatment of tumors” (The Chancellor, Masters and Scholars of the University of …, priority 2007, dated 2015).

Assays:
MelJuSo melanoma cells = assay: MTS cell viability assay, MelJuSo; type: cell-based; settings: Homo sapiens, MEL-JUSO, 24 h, read-out: IC50 (concentration reducing number of viable cells by 50%)
Procedure: (§1) Cells were cultured at indicated densities for 24 h, medium was removed and the incubation was continued in a fresh culture medium containing various GC2 or DTIC concentrations. In control experiments, cells were grown in a culture medium containing GC2 buffer.
(§2) The standard […] (MTS)-3-(4,5-dimethylthiazol-2-yl)-5-(3-carboxymethoxyphenyl)-2-(4-sulphophenyl)-2H-tetrazolium inner salt solution assay was performed in order to examine the cytotoxic/cytostatic effect of GC2 on melanoma cells. Briefly, 7.5×10^3 cells were seeded in 96-well microtiter plates (Nunc). After an overnight incubation, serial dilutions of GC2 or DTIC were added in triplicate to a final volume of 100 μl. The blank was represented by a culture medium without cells containing the highest GC2 or DTIC concentration. After 24 h of incubation 20 μl MTS was added to each well and all samples were incubated for 3 h at 37° C. An absorbance of each well was read at 450 nm in a microplate reader. A percentage of cell viability was calculated considering that 100% cell viability was represented by an absorbance of untreated samples […]. Alternatively, the number of viable cells was determined by Trypan blue exclusion test. Melanoma cells treated with GC2 were trypsinized and cells negative for blue staining (viable cells) were counted using a hemocytometer. […]

SKMel28 melanoma cells = assay: MTS cell viability assay, SKMel28; type: cell-based; settings: Homo sapiens, SK-MEL-28, SKMel28, 24 h, read-out: IC50 (concentration reducing number of viable cells by 50%)
Procedure: as §1, §2

B16D2 melanoma cells = assay: MTS cell viability assay, B16D2; type: cell-based; settings: B16D2, 24 h, read-out: IC50 (concentration reducing number of viable cells by 50%)
Procedure: as §1, §2

SKMel28 cells = assay: Acidic vesicular organelles, Lysotracker Red vital staining; type: cell-based; settings: SKMel28, 6 μM, 3 h and 8 h
Procedure: Tumor cells were cultured 24 h on cover glasses, treated with GC2, and processed as described in Negroiu, G., et al. J. Biol. Chem. 278, 27035-27042, 2003. The acidic vesicular compartments were detected following incubation of live cells GC2 treated with Lysotracker® Red (0.125 μl/ml culture medium) for 30 min at 37° C. Fixed cells were incubated with the following primary antibodies: mouse anti-EEA1 (1:100), human-CD107A (anti-Lamp1) (1:50), a mouse anti-α tubulin (1:200) followed by an appropriate Alexa Fluor® 488 conjugated secondary antibodies (1:400) or with Alexa Fluor® 594 phalloidin. Finally, nuclei of fixed cells were stained with 5 mM Hoechst dye 33342. Cells were washed three times with PBS and mounted in Vectashield® mounting medium.
Acidic compartments of untreated and GC2-treated tumor cells were differentiated using a lysosomotropic agent LysoTracker® Red (LT), a marker for tracking acidic organelles in live cells. These probes can be used to investigate the acidification of lysosomes and alteration of their function or trafficking that occur in the cell. In untreated SKMel28 cells (FIG. 5Aa) the LT probe has a moderate fluorescence as fine punctate structures distributed within the entire cell cytoplasm and occasionally at the cell periphery.

[1] = Solubility in solvent mixture; type: physicochemical; settings: solvent mixture (GC2 buffer)

IC50 (MelJuSo melanoma cells): 7 to 8 µM | IC50 (SKMel28 melanoma cells): 7 to 8 µM | IC50 (B16D2 melanoma cells): 11 µM | solubility [1]: good solubility
SMILES: CC(=O)O.CCCCCCCCCN1[C@@H](CO)[C@@H](O)[C@H](O)[C@@H]1CCCCCCCC [GC2, (2S,3R,4R,5S)-3,4-dihydroxy-N-nonyl-5-octyl-2 hydroxymethylpyrrolidinium acetate]
Lysotracker Red probe distribution (acidic vesicles) (SKMel28 cells): accumulates in large, bright red fluorescent vesicles in a time dependent manner
